Data taken from a melting point compilation (Tetko et al.; mined from patent text by program, amines drawn as free bases though some values may be those of a salt).

Row | Structure (SMILES) | melting point [°C]
1 | CCC(CC)N(O)C(=O)Nc1ccc(C(=O)c2ccccc2)cc1 | 156 to 157
2 | O=C(Nc1cccc(-c2ccnc3c(C(=O)c4cccs4)cnn23)c1)c1cn[nH]c1 | 165 to 170
3 | FC(F)(F)c1ccc(-c2cc3ncnc(Nc4ccc5[nH]ccc5c4)c3s2)cc1 | 181 to 194
4 | O=c1[nH]c2ccc(Cl)cc2n1-c1ccc(Cl)cc1 | 239
5 | O=C(O)CCCCc1cc2nc(Cl)ccc2n1S(=O)(=O)c1ccccc1 | 113
6 | COC(=O)Cc1ccc(OCCNC(=O)C2Cc3ccccc3N2S(=O)(=O)c2ccc(-c3ccc(F)cc3)cc2)c(Cl)c1 (stereo not drawn) | 68 to 76
7 | CNc1nc(-c2cccc(NC(=O)c3ccc(OC)c(OC)c3)c2)c2cc(OC)c(OC)cc2n1 | 128 to 130
8 | Cc1ccc(Cn2nc(-c3cc(C(C)(C)C)c(O)c(C(C)(C)C)c3)c3cccnc32)cc1 | 134 to 135
9 | O=C(NCc1ccccc1Cl)Nc1ccc([N+](=O)[O-])cc1O | 199 to 200
10 | CC(C)(C)C1NCc2ccccc2C1c1ccccc1 (stereo not drawn) | 79 to 81
11 | COC(=O)c1ccc(OCCCN2CCC(C(=O)c3nc4ccccc4s3)CC2)cc1 | 108 to 110
12 | CC(C)(C)c1cc(C(=O)c2cccnc2Cl)cc(C(C)(C)C)c1O | 135 to 137
13 | ON=C1COc2cc(OCc3c(F)cccc3F)ccc21 | 166 to 172
14 | CC(=O)Nc1ccc(-c2cc(-c3ccc(NC(C)=O)cc3C)cc(-c3ccc(NC(C)=O)cc3C)c2)c(C)c1 | 180
15 | CC(C)(C)Nc1c([N+](=O)[O-])cc([N+](=O)[O-])c2nc(C(F)(F)F)[nH]c12 | 177 to 188
16 | CNC(=O)N1CCSC1c1ccc(O)cc1 (stereo not drawn) | 218 to 220
17 | O=C(NC1CCCCC1)c1ccc(Cn2cnc3ccccc32)cc1 | 189 to 191
18 | O=c1[nH]c2ccccc2n1CCCN1CCC(c2noc3cc(F)ccc23)CC1 | 175 to 177
19 | O=C(c1ccc(F)cc1)C1(n2cncn2)CC1 | 73 to 75
20 | O=C(O)CC1(CCCCCCCCC2(CC(=O)O)CC2)CC1 | 101
21 | COc1cc(C(=O)N(C(C)C)C2CCCCC2)ccc1Cn1c(CO)nc2ncccc21 | 117 to 119
22 | O=C1c2cccc([N+](=O)[O-])c2C(=O)N1CCO | 93
23 | N=C(c1ccccc1)c1cc(F)cc(NC(=O)/C=C/c2ccccn2)c1 | 205 to 207
24 | Cn1cc(OS(C)(=O)=O)c(=O)c2ccc(OCC(F)(F)F)cc21 | 110 to 112
25 | CCCS(=O)c1ccc2[nH]c(NC(=O)OC)nc2c1 (stereo not drawn) | 215 to 216
26 | CC1(C)C=Cc2c(ccc3c2C(=O)C(O)=CC3=O)O1 | 208

Row | Structure (SMILES) | melting point [°C]
27 | CSc1cnc(NC(=O)c2cccc(OC(C)=O)c2)s1 | 135 to 136
28 | COC(=O)C(CCSC)NC(=O)c1ccc(NCC2CC(O[Si](C)(C)C(C)(C)C)CN2C(=O)OC(C)(C)C)cc1-c1ccccc1 (stereo not drawn) | 48
29 | COc1cc(C)nc(NC(=O)NS(=O)(=O)c2cc([N+](=O)[O-])cs2)n1 | 155
30 | COC(=O)N1Cc2c(O)noc2C(C)C1 (racemic) | 128 to 129
31 | ClC1(Cl)C(Cl)(Cl)C1(Cl)c1ccccn1 | 132 to 134
32 | C[C@H]1O[C@@H](C(Cl)(Cl)Cl)OC(=O)[C@@H]1C | 128 to 130
33 | CC(C#N)=C1CCN(c2ccc(N3C[C@@H](CNNCC(=O)O)OC3=O)cc2F)CC1 | 141 to 142
34 | CC(=O)Oc1ccc(CC2SC(=O)NC2=O)cc1 (stereo not drawn) | 115 to 117
35 | CSc1cncc(O)c1 | 179
36 | O=P(O)(O)C1CC(c2ccc(F)cc2)=NO1 (stereo not drawn) | 206
37 | Cc1ccc(S(=O)(=O)N2CC(O)CC2C(=O)O)cc1 (stereo not drawn) | 146 to 147
38 | CON=C(C(=O)O)c1cccc(OC)c1 | 97 to 98
39 | COC(=O)[C@H](c1ccccc1Cl)N1CCc2sc(OC(=O)C=Cc3ccccc3)cc2C1 | 122 to 124
40 | Cc1ccc(-c2nn(-c3cccc(OC(F)(F)F)c3)c(N)c2C(N)=O)cc1 | 177 to 179
41 | COc1cccc(-c2cc(C#N)c(SC)[nH]2)c1 | 112 to 113
42 | CCCC1=C(C#N)C(c2ccccc2Cl)c2cn(C(=O)Nc3ccccc3)nc2N1 (stereo not drawn) | 167 to 171
43 | O=C1Nc2cccnc2N(C(=O)CCCl)c2ccccc21 | 216 to 218
44 | O=C(NN=Cc1ccnc2ccccc12)C1CCC1 | 138
45 | O=C(Nc1cc(F)cc(F)c1)Oc1ccccc1 | 123 to 125
46 | CCc1cnc(-c2ccc(OC)cc2)c(-c2ccc(OC)cc2)n1 | 76.5 to 78
47 | Nc1cnccc1CCCOc1cccnc1Oc1cccc(Cl)c1 | 140 to 142
48 | CS(=O)(=O)c1cccc(NC(=O)c2cnn3c(C(F)(F)F)cc(-c4ccc(OC(F)(F)F)cc4)nc23)c1 | 245
49 | CC#CCOc1ccc(S(=O)C(C(=O)NO)c2ccccc2OC)cc1 (stereo not drawn) | 168
50 | COc1cc(C)c([N+](=O)[O-])c(C)c1 | 50 to 52
51 | O=C(NO)c1ccc2c(c1)CN(C(=O)c1cc3ccccc3cn1)C2 | 208 to 210
52 | CCOC(=O)CCc1cc(O)nn1C1CCCCC1 | 173 to 174

Row | Structure (SMILES) | melting point [°C]
53 | CCOc1ccc(C2=NN(C3CCN(C(=O)NC(C)(C)C)CC3)C(=O)[C@@H]3CC=CC[C@H]23)cc1OCC | 145 to 148
54 | COC(=NC(=O)Nc1ccc(OC(F)(F)F)cc1)c1ccccc1Cl | 148 to 149
55 | CN(C(=O)Nc1ccccc1F)C(Cl)C(Cl)(Cl)Cl (stereo not drawn) | 130 to 141
56 | NCC1(Cc2noc(=O)[nH]2)CCCCC1 | 109 to 111
57 | COC(=O)c1cc(C(=O)O)nc2cc(Cl)cc(Cl)c12 | 169 to 171
58 | CC(=O)NCCCCCCOc1ccccc1C(=O)Nc1ccc(C(=O)N2CCCCc3ccccc32)cc1 | 171 to 172
59 | CC(C)(C)N(NC(=O)c1ccccc1)C(=S)c1ccccc1 | 169 to 171
60 | Cc1c(C(N)=O)c2ccccc2n2c(N(C)C)nc(-c3noc(C4CC4)n3)c12 | 190 to 192
61 | COCCCNS(=O)(=O)NC(=O)OCc1ccccc1 | 91 to 93
62 | COc1ccc(C(=O)Nc2ccc(C(C)(C)C#N)cc2)c(Cl)c1OC | 195 to 198
63 | O=S(=O)(c1cccc2cccnc12)N1CCN(CCc2ccc(F)cc2)CC1 | 141
64 | CCc1cn2ccccc2c1S(=O)(=O)c1ccc(OCCCBr)cc1 | 136
65 | O=[N+]([O-])c1ccc2c(c1)SC(c1ccc(Cl)cc1Cl)O2 (stereo not drawn) | 106 to 108
66 | O=C1c2ccccc2C(=O)N1CCc1ccc(OC(F)(F)F)c(OC(F)(F)F)c1 | 60 to 61
67 | FC(F)(F)c1ccc(OCCc2c[nH]cn2)cc1 | 105 to 109
68 | CN1CCN(c2ccc(/C=C/c3cc(/C=C/c4ccc5cc[nH]c5c4)[nH]n3)c(Br)c2)CC1 | 120 to 124
69 | Fc1ccc(Nc2nc(OCC3CCCCC3)c3[nH]cnc3n2)cc1Cl | 225 to 226
70 | Cc1nn(C)c(Cl)c1S(=O)(=O)Nc1ccc(Cl)cc1C(=O)Nc1ccc(S(=O)(=O)N2CCSCC2)cc1 | 215 to 216
71 | CCNc1ccc(C2(C)C(=O)Nc3cc(Cl)cc(Cl)c3C2=O)cc1 (stereo not drawn) | 197 to 198
72 | CCOC(=O)CSc1nc(O)ns1 | 131
73 | COc1ccc(C2NC(=S)NC(C)=C2C(C)=O)cc1 (racemic) | 175
74 | CSc1nnc(Cc2cccnc2)c(=O)[nH]1 | 215 to 216
75 | O=C(CCC(=O)N1CCCCC1c1ccccc1)c1ccc2c(c1)CCNCC2 (stereo not drawn) | 114
76 | O=C1C=C(OCCCCCCI)c2ccccc2C1=O | 85 to 87
77 | CCCCCCCCCCCCCCCC(=O)OCC(COC(=O)CCCCCCCCCCCCCCC)OCn1cnc2c(=O)[nH]c(N)nc21 | 150 to 154
78 | C#CCN(C(=O)CN)C(=O)OC | 77 to 80

Row | Structure (SMILES) | melting point [°C]
79 | CCC(C)(CC)c1ccc(N)nn1 | 56 to 58
80 | CNC(=O)Nc1sc2nc(C)ccc2c1C(=O)N1CCC(N2CCCC3(CCN(C(C)C)C3=O)C2)CC1 (stereo not drawn) | 195 to 198
81 | OCCOc1cccc2cccnc12 | 82 to 84
82 | CCCC1(C)C(=O)N(CCl)S(=O)(=O)N1C (stereo not drawn) | 99 to 100
83 | Cc1cc(OCc2ccccc2F)c2cccc(O)c2n1 | 124 to 125
84 | Cc1nc2ccccc2cc1NC(=O)N1CCN(c2cccc3ccccc23)CC1 | 220 to 222
85 | COc1cc(C=CC(=O)OC2CC3CC(OC(=O)Cc4cccc(O)c4)CC2N3C)cc(OC)c1OC (stereo not drawn) | 53 to 57
86 | S=C1NCSc2ccsc21 | 136 to 138
87 | O=c1[nH]cc(Br)cc1Nc1ccncn1 | 150 to 151
88 | CCn1c(=O)n(C2OC(CO)C(O)C2O)c2nc(N)[nH]c(=O)c21 (stereo not drawn) | 185 to 187
89 | CC1=C(CC2=NCCN2C)CCc2ccccc21 | 162 to 164
90 | COC(=O)C1=C(C)Nc2ccccc2SC1c1ccccc1C(F)(F)F (stereo not drawn) | 165 to 166
91 | FC(F)(F)Sc1cc[nH]c1-c1ccc(Cl)cc1 | 59 to 64
92 | Cc1c(C)c2c(c(C)c1NC(=O)CC(C)C)C(O)(c1ccc3ccccc3c1)C(C)(C)O2 (stereo not drawn) | 108 to 110
93 | Clc1nc2ccccc2c2c(CCN3CCN(Cc4ccccc4)CC3)n(-c3ccccc3)nc12 | 75 to 77
94 | C[C@H]1Cc2cccc3sc(=O)n(c23)C1 | 54 to 56
95 | O=C(O)C1=Cc2cc(-c3ccc(OC(F)(F)F)cc3)ccc2S(=O)(=O)CC1 | 284 to 285
96 | CCOP(=O)(Cc1ccc(C(=S)Nc2nc3c(s2)Cc2c(Cl)cccc2-3)cc1)OCC | 180
97 | CC(C)C[C@H](NC(=O)OCC1CCCCCC1)C(=O)N[C@@H](Cc1ccccc1)C(=O)CSCc1ccco1 | 77 to 79
98 | CC(C)c1cccc(C(C)C)c1NC(=O)C(Cc1ccccc1)NC(=O)CCCCl (stereo not drawn) | 212 to 215
99 | CCOc1ccc(C(=O)CN2CCOCC2)cc1-c1nc2c(C)cccc2c(=O)[nH]1 | 172 to 173
100 | CN1CCN(CCCNC(=S)NC2CCCCC2)CC1 | 109 to 111
101 | CCC(=O)Nc1nc(C(Cl)(Cl)Cl)ns1 | 150
102 | Cc1ccc2[nH]c(S(=O)(=O)CC(F)(F)F)nc2c1 | 160 to 161
103 | O=C1COc2cc(NC(=O)C(=O)N3CCC(Oc4ccccc4)CC3)ccc2N1 | 196 to 199
